In paper PMC10643470, “Knockout or inhibition of USP30 protects dopaminergic neurons in a Parkinson’s disease mouse model” (Nature Communications, 2023):
Where “and” joins values, the source holds several entries; their conditions need not be identical. Equal values may be shown once. Read-outs that look alike come from different tables or passages of the source.

Legend:
USP32 = USP32 (Homo sapiens, UniProt Q8NFA0); assay: DUB/cathepsin selectivity biochemical assay
mouse USP30 = target: T1, mouse USP30 (Mus musculus, UniProt Q3UN04); assay: USP30 biochemical fluorescence polarization assay (mouse); conditions: read-out: Mouse USP30 FP assay (IC50)
T1 construct: Mouse USP30(57-517) (Boston Biochem, #E-582M); purchased Boston Biochem E-582M
T1 sequence (Q3UN04 57-517): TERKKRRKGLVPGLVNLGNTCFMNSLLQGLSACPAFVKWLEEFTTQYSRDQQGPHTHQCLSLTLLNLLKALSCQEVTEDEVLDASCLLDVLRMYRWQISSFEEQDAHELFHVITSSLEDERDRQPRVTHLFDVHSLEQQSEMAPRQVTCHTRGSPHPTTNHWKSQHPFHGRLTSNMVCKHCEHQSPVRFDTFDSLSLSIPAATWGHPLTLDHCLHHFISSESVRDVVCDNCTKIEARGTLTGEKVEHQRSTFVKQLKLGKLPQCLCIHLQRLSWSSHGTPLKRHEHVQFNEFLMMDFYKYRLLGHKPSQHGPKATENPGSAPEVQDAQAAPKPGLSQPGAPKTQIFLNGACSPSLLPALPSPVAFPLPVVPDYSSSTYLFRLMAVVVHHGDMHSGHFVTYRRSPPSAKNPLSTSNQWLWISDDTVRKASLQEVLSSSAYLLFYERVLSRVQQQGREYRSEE
Procedure: USP30 enzyme was diluted in reaction buffer (40 mM Tris HCl, pH 7.5, 0.005% Tween 20, 0.5 mg/ml BSA, 5 mM BME) to achieve a final concentration of 8 nM for human USP30 and 10 nM for mouse USP30, the compound was added and incubated for 30 min at room temp then reactions initiated by addition of Ub-Lys-TAMRA (final conc of 50 nM). Fluorescence was measured immediately after the addition of substrate and following a 2 h incubation on Pherastar Plus or FSX with λ Excitation 540 nm and λ Emission 590 nm.

USP9x = USP9x (Homo sapiens, UniProt Q93008); assay: DUB/cathepsin selectivity biochemical assay
Sequence of USP9x (Q93008 whole entry, species assumed): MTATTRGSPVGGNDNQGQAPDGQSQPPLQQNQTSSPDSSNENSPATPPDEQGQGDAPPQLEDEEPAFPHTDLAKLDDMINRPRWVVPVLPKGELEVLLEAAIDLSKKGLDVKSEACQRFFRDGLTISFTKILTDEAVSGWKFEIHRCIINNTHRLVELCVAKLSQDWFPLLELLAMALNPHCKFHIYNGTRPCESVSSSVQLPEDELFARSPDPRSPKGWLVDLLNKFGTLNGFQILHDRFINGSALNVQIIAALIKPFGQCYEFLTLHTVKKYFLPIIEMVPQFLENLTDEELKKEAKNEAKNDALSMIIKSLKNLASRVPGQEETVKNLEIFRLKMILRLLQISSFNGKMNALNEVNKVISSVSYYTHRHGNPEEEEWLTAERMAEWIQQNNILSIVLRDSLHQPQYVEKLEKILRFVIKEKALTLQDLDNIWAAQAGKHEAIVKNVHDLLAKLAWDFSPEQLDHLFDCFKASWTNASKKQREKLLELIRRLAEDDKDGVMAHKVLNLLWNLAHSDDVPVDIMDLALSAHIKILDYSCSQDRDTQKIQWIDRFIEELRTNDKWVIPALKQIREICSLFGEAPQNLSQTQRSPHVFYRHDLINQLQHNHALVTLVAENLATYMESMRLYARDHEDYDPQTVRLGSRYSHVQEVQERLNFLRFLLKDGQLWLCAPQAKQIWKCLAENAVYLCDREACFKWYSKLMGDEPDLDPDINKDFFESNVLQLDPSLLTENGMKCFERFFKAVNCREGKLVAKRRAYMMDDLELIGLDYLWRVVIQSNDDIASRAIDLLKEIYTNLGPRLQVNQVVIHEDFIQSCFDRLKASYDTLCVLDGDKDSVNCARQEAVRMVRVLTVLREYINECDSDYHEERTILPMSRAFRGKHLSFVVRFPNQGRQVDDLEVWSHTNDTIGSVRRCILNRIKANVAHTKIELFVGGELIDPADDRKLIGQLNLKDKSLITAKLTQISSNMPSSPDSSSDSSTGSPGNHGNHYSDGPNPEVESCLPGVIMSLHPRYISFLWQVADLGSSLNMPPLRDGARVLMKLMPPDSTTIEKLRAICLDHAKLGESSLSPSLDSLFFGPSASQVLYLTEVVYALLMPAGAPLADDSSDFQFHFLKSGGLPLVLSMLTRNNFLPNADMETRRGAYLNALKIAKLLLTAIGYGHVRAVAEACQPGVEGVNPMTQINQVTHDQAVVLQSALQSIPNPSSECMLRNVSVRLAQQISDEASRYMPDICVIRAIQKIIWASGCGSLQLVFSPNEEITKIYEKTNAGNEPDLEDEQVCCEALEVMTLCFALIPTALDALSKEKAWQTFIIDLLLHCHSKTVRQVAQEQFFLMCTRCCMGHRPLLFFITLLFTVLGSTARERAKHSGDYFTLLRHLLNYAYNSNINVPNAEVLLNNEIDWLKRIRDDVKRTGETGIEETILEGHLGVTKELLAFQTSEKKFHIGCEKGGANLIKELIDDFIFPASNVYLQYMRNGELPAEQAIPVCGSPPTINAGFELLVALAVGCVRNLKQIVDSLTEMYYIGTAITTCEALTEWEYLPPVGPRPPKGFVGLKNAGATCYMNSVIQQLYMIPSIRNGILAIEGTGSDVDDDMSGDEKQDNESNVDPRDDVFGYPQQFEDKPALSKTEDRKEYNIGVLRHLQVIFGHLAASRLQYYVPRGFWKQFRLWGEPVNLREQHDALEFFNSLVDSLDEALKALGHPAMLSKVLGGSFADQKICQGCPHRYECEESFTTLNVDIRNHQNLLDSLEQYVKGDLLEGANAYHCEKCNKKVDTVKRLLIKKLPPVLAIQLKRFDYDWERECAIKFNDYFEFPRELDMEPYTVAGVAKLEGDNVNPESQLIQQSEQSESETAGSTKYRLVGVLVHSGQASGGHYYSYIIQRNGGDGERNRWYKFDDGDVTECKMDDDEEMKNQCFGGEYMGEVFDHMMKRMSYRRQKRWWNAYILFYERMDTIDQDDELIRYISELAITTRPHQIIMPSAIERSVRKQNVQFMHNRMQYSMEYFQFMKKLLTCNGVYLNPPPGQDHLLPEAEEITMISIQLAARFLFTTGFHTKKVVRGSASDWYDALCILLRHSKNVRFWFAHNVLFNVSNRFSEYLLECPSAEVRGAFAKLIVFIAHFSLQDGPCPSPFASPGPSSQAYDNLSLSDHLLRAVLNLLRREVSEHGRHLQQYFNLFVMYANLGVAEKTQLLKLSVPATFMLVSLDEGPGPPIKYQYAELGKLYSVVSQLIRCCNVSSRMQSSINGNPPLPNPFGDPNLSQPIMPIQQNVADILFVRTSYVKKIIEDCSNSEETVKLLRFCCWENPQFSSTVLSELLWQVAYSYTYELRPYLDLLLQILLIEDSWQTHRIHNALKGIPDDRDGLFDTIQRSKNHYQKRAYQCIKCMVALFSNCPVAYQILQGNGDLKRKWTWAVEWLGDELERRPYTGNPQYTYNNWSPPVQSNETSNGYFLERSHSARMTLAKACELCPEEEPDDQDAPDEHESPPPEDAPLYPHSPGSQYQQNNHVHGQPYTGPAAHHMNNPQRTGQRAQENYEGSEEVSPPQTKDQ

USP11 = USP11 (Homo sapiens, UniProt P51784); assay: DUB/cathepsin selectivity biochemical assay
ATXN3L = ATXN3L (Homo sapiens, UniProt Q9H3M9); assay: DUB/cathepsin selectivity biochemical assay
USP24 = USP24 (Homo sapiens, UniProt Q9UPU5); assay: DUB/cathepsin selectivity biochemical assay
USP34 CORE = target: T2, USP34 CORE (Homo sapiens, UniProt Q70CQ2); assay: DUB/cathepsin selectivity biochemical assay
T2 construct: USP34 CORE

YOD1 = YOD1 (Homo sapiens, UniProt Q5VVQ6); assay: DUB/cathepsin selectivity biochemical assay
USP19 = USP19 (Homo sapiens, UniProt O94966); assay: DUB/cathepsin selectivity biochemical assay
[1] = tested on: TOM20 ubiquitylation in HeLa cells overexpressing PARKIN; assay: Cell TOM20 ubiquitination assay (HeLa YFP-Parkin + A/O); assay type: cell-based, human; conditions: for EC50: Homo sapiens, 1.5 h
Procedure: Hela cells overexpressing YFP-Parkin were treated with 1 µM Antimycin A and 1 µM Oligomycin A (AA/OA) and test compound or DMSO for 90 mins. Following treatment, media was removed, and cells were washed in DPBS and then lysed in NP40 lysis buffer on ice. […] The bands corresponding to all forms of ubiquitylated TOM20 were quantified and normalized to the same bands for AA/OA treated cells.

VCPIP FL = target: T3, VCPIP FL (Homo sapiens, UniProt Q96JH7); assay: DUB/cathepsin selectivity biochemical assay
T3 construct: VCPIP FL

USP12/UAF1 = USP12/UAF1 (Homo sapiens, UniProt O75317); assay: DUB/cathepsin selectivity biochemical assay
Sequence of USP12/UAF1 (O75317 whole entry, species assumed): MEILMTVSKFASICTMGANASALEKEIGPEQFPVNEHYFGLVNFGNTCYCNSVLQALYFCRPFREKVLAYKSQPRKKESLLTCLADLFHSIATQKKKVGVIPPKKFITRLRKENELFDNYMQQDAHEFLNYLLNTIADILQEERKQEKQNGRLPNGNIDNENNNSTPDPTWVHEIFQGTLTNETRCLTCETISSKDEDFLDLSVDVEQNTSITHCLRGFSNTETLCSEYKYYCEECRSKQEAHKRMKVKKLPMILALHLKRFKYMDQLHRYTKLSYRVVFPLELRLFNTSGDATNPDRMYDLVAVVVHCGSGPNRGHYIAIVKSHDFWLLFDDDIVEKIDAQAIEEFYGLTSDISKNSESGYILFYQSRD
Sequence of USP12/UAF1 (Q8TAF3 whole entry partner, species assumed): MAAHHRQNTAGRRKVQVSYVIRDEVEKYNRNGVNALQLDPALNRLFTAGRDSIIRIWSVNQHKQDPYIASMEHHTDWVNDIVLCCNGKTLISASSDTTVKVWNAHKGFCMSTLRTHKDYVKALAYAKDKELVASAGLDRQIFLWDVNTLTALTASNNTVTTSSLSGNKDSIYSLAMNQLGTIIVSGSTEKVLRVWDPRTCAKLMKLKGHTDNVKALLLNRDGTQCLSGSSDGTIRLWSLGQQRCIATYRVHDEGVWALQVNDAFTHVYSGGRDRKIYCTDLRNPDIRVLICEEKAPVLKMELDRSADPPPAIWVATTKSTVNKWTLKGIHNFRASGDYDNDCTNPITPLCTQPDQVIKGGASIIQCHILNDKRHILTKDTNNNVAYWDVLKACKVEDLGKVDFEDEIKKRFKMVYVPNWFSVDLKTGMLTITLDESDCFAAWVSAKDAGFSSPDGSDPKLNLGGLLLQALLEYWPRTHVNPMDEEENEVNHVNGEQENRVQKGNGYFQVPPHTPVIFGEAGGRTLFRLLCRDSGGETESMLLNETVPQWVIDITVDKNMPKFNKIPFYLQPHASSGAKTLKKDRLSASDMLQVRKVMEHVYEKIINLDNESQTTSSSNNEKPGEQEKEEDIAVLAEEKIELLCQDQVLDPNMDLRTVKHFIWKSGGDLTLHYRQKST

USP47 = USP47 (Homo sapiens, UniProt Q96K76); assay: DUB/cathepsin selectivity biochemical assay
USP14 = USP14 (Homo sapiens, UniProt P54578); assay: DUB/cathepsin selectivity biochemical assay
OTUD6A = OTUD6A (Homo sapiens, UniProt Q7L8S5); assay: DUB/cathepsin selectivity biochemical assay
Sequence of OTUD6A (Q7L8S5 whole entry, species assumed): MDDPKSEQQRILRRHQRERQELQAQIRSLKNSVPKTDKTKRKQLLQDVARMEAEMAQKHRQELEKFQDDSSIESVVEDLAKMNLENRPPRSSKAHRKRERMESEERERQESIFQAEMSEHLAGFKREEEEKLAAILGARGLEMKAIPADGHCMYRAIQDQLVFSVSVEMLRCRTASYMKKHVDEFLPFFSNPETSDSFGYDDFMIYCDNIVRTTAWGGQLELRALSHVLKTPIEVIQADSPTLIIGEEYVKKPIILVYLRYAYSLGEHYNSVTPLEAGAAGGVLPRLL

SENP6 = SENP6 (Homo sapiens, UniProt Q9GZR1); assay: DUB/cathepsin selectivity biochemical assay
OTUD1 CD = target: T4, OTUD1 CD (Homo sapiens, UniProt Q5VV17); assay: DUB/cathepsin selectivity biochemical assay
T4 construct: OTUD1 CD
T4 sequence (Q5VV17 309-438 limits assumed): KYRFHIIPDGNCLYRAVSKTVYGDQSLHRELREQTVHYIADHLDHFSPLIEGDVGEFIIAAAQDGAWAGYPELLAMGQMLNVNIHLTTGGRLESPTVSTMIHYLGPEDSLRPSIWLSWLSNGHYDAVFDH

USP4 = USP4 (Homo sapiens, UniProt Q13107); assay: DUB/cathepsin selectivity biochemical assay
USP46/UAF1 = USP46/UAF1 (Homo sapiens, UniProt P62068); assay: DUB/cathepsin selectivity biochemical assay
Sequence of USP46/UAF1 (P62068 whole entry, species assumed): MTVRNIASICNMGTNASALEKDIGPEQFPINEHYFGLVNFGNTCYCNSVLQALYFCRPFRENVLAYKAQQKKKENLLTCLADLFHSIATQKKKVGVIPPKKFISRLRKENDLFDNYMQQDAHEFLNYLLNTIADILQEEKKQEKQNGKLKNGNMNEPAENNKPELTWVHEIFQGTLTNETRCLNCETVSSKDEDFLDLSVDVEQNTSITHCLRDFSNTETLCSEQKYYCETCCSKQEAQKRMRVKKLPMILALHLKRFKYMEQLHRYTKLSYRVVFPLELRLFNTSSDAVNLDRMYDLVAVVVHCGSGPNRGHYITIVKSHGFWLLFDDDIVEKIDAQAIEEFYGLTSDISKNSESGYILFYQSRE
Sequence of USP46/UAF1 (Q8TAF3 whole entry partner, species assumed): as the sequence (Q8TAF3 whole entry partner, species assumed) above

OTUD3 CD = target: T5, OTUD3 CD (Homo sapiens, UniProt Q5T2D3); assay: DUB/cathepsin selectivity biochemical assay
T5 construct: OTUD3 CD
T5 sequence (Q5T2D3 65-189 limits assumed): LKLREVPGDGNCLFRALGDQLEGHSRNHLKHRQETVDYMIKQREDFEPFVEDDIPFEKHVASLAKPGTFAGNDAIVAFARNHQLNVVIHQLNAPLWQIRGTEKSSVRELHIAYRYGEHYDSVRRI

USP10 = USP10 (Homo sapiens, UniProt Q14694); assay: DUB/cathepsin selectivity biochemical assay
[2] = tested on: AAV-A53T-SNCA PD mouse model; assay: Iba1/GFAP immunostaining in SNpc, AAV-A53T-SNCA mouse model (compound study); assay type: in vivo; parameters: key to Figure S7a immunostaining, Left / Figure S7a immunostaining, Right: % stained area = stained area / region area × 100
Source text: For the compound study, the fixed, cryoprotected and frozen midbrain samples were sectioned as coronal sections at 100 µm intervals through SNpc and ventral tegmental area (VTA) and mounted on glass slides. Sectioning was started at −2.6 mm from bregma and continued to −3.7 mm from bregma in the AP axis (coordinates based on Franklin & Paxinos: The Mouse Brain in Stereotaxic Coordinates). For the immunostaining, the sections were stained with anti-TH following permeabilization. The stained sections were scanned with the Olympus VS120 slide scanner and analyzed with a VIS-Visiopharm Integrator System (Visiopharm, Denmark) by a blinded data analyst. All cells of interest with visible nuclei were labeled manually and counted using an APP (Analysis Protocol Package), scaled by section thickness and sectioning interval to estimate the total cell population in the SNpc. For immunostaining of Ser129 αSyn phosphorylation, TSA amplification was used with primary antibody ab51253 (Abcam). Blinded analysis was used, and positive cells per area were determined. For dual IF IHC of Iba1 (WAKO) and GFAP (ab4674 – Abcam), the stained sections were scanned and analyzed by a blinded data analyst. Analysis determines the percentage of positive staining area [%area = (stained area/region area) * (100)]. To calculate % of stained area, the same threshold value was applied to all sections with the same antibody staining. All pixels above the threshold value were considered positive. All striatal densitometry and neuronal counting data for both KO and inhibitor studies were obtained by an investigator blinded to genotype and treatment.

[3] = Mouse pharmacokinetics (IV clearance, oral bioavailability); assay type: in vivo; conditions: blood

In the case of `C[C@@H]1[C@H]2CCN(C(=O)c3ncc(-c4ccnc(C#N)c4)o3)[C@H]2CN1C#N` [MTX115325], the IC50 (USP32) is reported as 120 µM, the IC50 (mouse USP30) is reported as 0.013 µM and the IC50 (USP9x) is reported as > 300 µM. For the same molecule, the IC50 (USP11) was 291 µM, the IC50 (ATXN3L) was 173 µM and the IC50 (USP24) was > 300 µM. The IC50 (USP34 CORE) was > 300 µM, the IC50 (YOD1) was > 300 µM and the IC50 (USP19) was 278 µM. For the same molecule, the “TOM20 ubiquitylation signal, MTX115325 + AO (Figure 4b)” value (shortened to “TOM20 ubiquitylation signal”) ([1]; 0.0001 µM) was 1.19, the “TOM20 ubiquitylation signal” value ([1]; 0.0003 µM) was 1.5 and the “TOM20 ubiquitylation signal” value ([1]; 0.001 µM) was 1.43. The “TOM20 ubiquitylation signal” value ([1]; 0.003 µM) was 1.6, the “TOM20 ubiquitylation signal” value ([1]; 0.01 µM) was 2.01 and the “TOM20 ubiquitylation signal” value ([1]; 0.03 µM) was 2.55. The “TOM20 ubiquitylation signal” value ([1]; 0.1 µM) was 3.08, the “TOM20 ubiquitylation signal” value ([1]; 0.3 µM) was 3.55 and the “TOM20 ubiquitylation signal” value ([1]; 1 µM) was 3.5. The “TOM20 ubiquitylation signal” value ([1]; 3 µM) was 3.33, the “TOM20-Ub 1.5X interpolated value (representative profile, Fig. 4b)” value ([1]; HeLa cells, 90 min, representative concentration-response) was 0.0020 µM and the “TOM20-Ub EC1.5x” value ([1]; HeLa-PARKIN + A/O, 90 min) was 10 nM. For the same molecule, the EC50 ([1]; HeLa cells, 90 min, representative concentration-response, read-out: TOM20-Ub EC50 (representative profile, Fig. 4b)) was 0.022 µM, the EC50 ([1]; HeLa-PARKIN + A/O, 90 min, read-out: TOM20-Ub EC50) was 0.032 µM and the IC50 (VCPIP FL) was > 300 µM. The IC50 (USP12/UAF1) was > 300 µM, the IC50 (USP47) was 212 µM and the IC50 (USP14) was > 300 µM. For the same molecule, the IC50 (OTUD6A) was > 300 µM, the IC50 (SENP6) was > 300 µM and the IC50 (OTUD1 CD) was > 300 µM. For the same molecule, the IC50 (USP4) was > 300 µM, the IC50 (USP46/UAF1) was > 300 µM and the IC50 (OTUD3 CD) was > 300 µM. The IC50 (USP10) was 107 µM, the “Total GFAP stained area” value ([2]; 50 mg/kg, SNpc) was “significantly decreased” and the “Figure S7b immunostaining quantification, Left” value ([2]; AAV-A53T + MTX115325 (50 mg/kg), Group 5, Left hemisphere, individual animal values (Animal ID in r3)) was 1.3107 and 1.822 and 1.54 and 1.4872 and 0.5058 and 0.5702 and 1.26 and 0.5434 and 3.27 and 0.3697 and 0.5693 and 0.3721 and 1.3682. For the same molecule, the “Figure S7b immunostaining quantification, Right” value ([2]; AAV-A53T + MTX115325 (50 mg/kg), Group 5, Right hemisphere, individual animal values (Animal ID in r3)) was 5.052 and 9.289 and 2.625 and 1.026 and 0.413 and 0.7794 and 1.305 and 0.7197 and 2.306 and 0.4784 and 1.89 and 0.7362 and 2.027, the “Figure S7a immunostaining, Left” value ([2]; Group 5: AAV-A53T + MTX115325 (50 mg/kg), Left side, individual animals) was 7.176 and 11.087 and 12.7517 and 7.21 and 7.515 and 4.054 and 9.929 and 4.978 and 8.49 and 4.199 and 4.24 and 6.399 and 9.051 and the “Figure S7a immunostaining, Right” value ([2]; Group 5: AAV-A53T + MTX115325 (50 mg/kg), Right side, individual animals) was 24.0437 and 23.3177 and 16.4732 and 6.609 and 8.915 and 4.627 and 11.7034 and 7.051 and 10.4594 and 5.626 and 7.142 and 6.872 and 11.3579. It also gave a bioavailability ([3]; 10 mg/kg oral gavage vs 2 mg/kg IV) of 98% and a clearance ([3]; IV 2 mg/kg) of 19.7 mL/min/kg.
